Consider 86 molecules from ChEMBL document CHEMBL1157539, “Thousands of chemical starting points for antimalarial lead identification” (Nature, 2010).

For the assay, the system named is Plasmodium falciparum. The assay can be described thus: GSK_TCMDC: Inhibition of Plasmodium falciparum 3D7 in whole erythrocytes, using parasite LDH activity as an index of growth. Type of assay: functional, organism-based. As to conditions: Plasmodium falciparum, 3D7.

In the case of `CCN(CC)CCCC(C)Nc1c2ccc(Cl)cc2nc2ccc(OC)cc12` (stereo unspecified), the XC50 was found to be 44.1 nM. Under `CCCCc1ccc(C(=O)Nc2ccc3nc(N4CCN(CC)CC4)cc(C)c3c2)cc1` stands 905 nM; under `Nc1nc(N)c2c(CCc3ccc4ccccc4c3)cccc2n1`, 693 nM; under `Cc1cc(N[C@@H](Cc2ccccc2)C(=O)NCCc2ccccc2)nc(NCc2ccccc2C)n1`, 879 nM.

Molecule `Cc1cc(CN2CC[C@H](NC(=O)c3ccc(Cl)c(Cl)c3)C2)ccc1OC1CCN(Cc2ccccc2)CC1` registered an XC50 of 906 nM. `Clc1ccc2c(NN=Cc3cccs3)ccnc2c1` showed an XC50 of 922 nM. As for `Nc1c2ccccc2nc2cc(C(F)(F)F)ccc12`, the XC50 turned out to be 842 nM.

`CN(C)C(=O)CN1CCN(c2ncnc(N3CCc4c([nH]c5ccccc45)[C@@H]3c3ccc4c(c3)CCO4)n2)CC1`: the XC50 is 871 nM. The molecule `COc1cccc(NC(=O)c2nc(N3CCN(c4ccncc4)CC3)ccc2Cl)c1` had an XC50 of 924 nM. The molecule `O=C(/C=C/c1ccc(Cl)c(Cl)c1)N1CCC(CCN2CCC(c3nc4cc(O)ccc4[nH]3)CC2)CC1` came in with an XC50 of 344 nM.

Consider `COc1cccc2cc(C(=O)N[C@@H](CC(C)C)C(=O)NC(/C=N/NC(=O)c3ccccc3)CCc3ccccc3)oc12` (stereo partly specified), for which the XC50 turned out to be 577 nM.

Turning to `N#Cc1ccc2c(c1)CCN(CCC1CCC(NC(=O)/C=C/c3cnc4ccccc4c3)CC1)CC2` (stereo unspecified), the XC50 turned out to be 1210 nM. In turn, `CC(C)Sc1nc2c(c(=O)n1Cc1ccco1)C1(CCCC1)Cc1ccccc1-2` yielded an XC50 of 1630 nM. `O=[N+]([O-])c1ccc(N/C(=N\c2ccccc2Br)NC2CCCc3ccccc32)c(O)c1` (stereo unspecified): the XC50 came out at 919 nM. In turn, `CN(C)Cc1ccc(-c2ccc3c(Nc4ccc(Oc5ccccn5)cc4)ccnc3c2)o1` gave an XC50 of 159 nM. Under `CC1CN(Cc2cccc(-c3ccc(-c4nc5ccccc5[nH]4)cc3)c2)CC(C)O1` (stereo unspecified) stands 857 nM; under `N#Cc1ccc(NC(=O)N2CCCN(CCCCCNC(=O)/C=C/c3ccc(Cl)c(Cl)c3)CC2)cc1`, 768 nM; under `CCN(CCNc1nc(NCCc2cnc[nH]2)nc(N(CCC#N)Cc2ccccc2)n1)c1cccc(C)c1`, 715 nM.

With `CC(C)(C)N1CCC(N(Cc2ccc(-c3ccc(C(F)(F)F)cc3)cc2)C(=O)Cn2c(CCc3cccc(F)c3F)nc(=O)c3cccnc32)CC1`, the XC50 turned out to be 757 nM. As to `O=c1cc(NCCCNCc2cccc(Oc3ccccc3)c2)[nH]c2ccccc12`, the XC50 worked out at 946 nM. `O=C1O[C@H](c2ccccc2)[C@H](c2ccccc2)N(C(=O)OCc2ccccc2)[C@H]1Cc1ccccc1C1CCCC1` showed an XC50 of 59.1 nM. `CCN1CC=C(c2c[nH]c3ccccc23)CC1` gave an XC50 of 1030 nM. `Nc1nccc2ccc(OC3CCCCC3)cc12` gave an XC50 of 602 nM. `C(=NN=c1cc(-c2ccccc2)[nH]c2ccccc12)c1cccnc1` came in with an XC50 of 1230 nM. In turn, `Cc1cnc(NCC2CCCCC2)nc1N[C@@H](CC(C)C)C(=O)Nc1ccccc1` displayed an XC50 of 869 nM. Under `Cc1nc(C)c(-c2ccc(S(=O)(=O)c3ccc(Cl)cc3)cc2)c(O)c1Br` stands 38 nM. Under `N#Cc1ccc(-c2ccc(C(=O)NCCCCN3CCC(c4nc5ccccc5[nH]4)CC3)cc2)cc1` stands 1010 nM; under `COCCNCc1ccc(-c2ccc3c(Nc4ccc(F)cc4Cl)ccnc3c2)o1`, 209 nM.

Regarding `CC(Cc1ccc(NC(=O)CCNCc2ccccc2)cc1)NCCc1cccc(Cl)c1` (stereo unspecified), the XC50 turned out to be 147 nM. Consider `CCC(C)NC(=O)CN1CN(c2ccccc2)C2(CCN(C(=O)c3ccc(C(C)(C)C)cc3)CC2)C1=O` (stereo unspecified), for which the XC50 was 125 nM.

In turn, `CCOc1ccc(NC(=O)c2cn3nc(-c4ccc(OCC)cc4)cc3nc2C2CCNCC2)cc1` showed an XC50 of 515 nM.

For the molecule `COc1cccc(CN2CCCN(Cc3cccc(NC(=O)c4ccc(Cl)c(Cl)c4)c3)CC2)c1`, the XC50 is 1460 nM. In the case of `CCC(=O)Nc1cc(=O)[nH]c2nc(-c3ccc(Cl)cc3)nn12` it was 570 nM. As to `CCOc1ccc(C(=O)Nc2nonc2-c2ccc(OC)c(OC)c2)cc1`, the XC50 was 868 nM. Under `NC(=O)c1cccc(Nc2nccc(Nc3ccc(Oc4cccc5ccccc45)cc3)n2)c1` stands 1150 nM. `COc1nc2c(CCN3CC[C@H](NCc4ccc5c(c4)NC(=O)CO5)[C@H](O)C3)c(Cl)cnc2cc1F` came in with an XC50 of 1020 nM. `COc1cc(Nc2nccc(-c3c(-c4cccc(NC(=O)c5c(F)cccc5F)c4)nn4ccccc34)n2)cc(OC)c1OC` had an XC50 of 77.3 nM. `CC=CC(=O)N1CCN(c2nccc(-c3ccc(C(C)(C)C)cc3)n2)CC1` yielded an XC50 of 1080 nM.

`O=C(NCCN1CCCCC1)N1CCCN(c2ncnc3cc(-c4ccccc4)sc23)CC1` had an XC50 of 231 nM. Under `Cc1ccc(Cn2ncc(N3CCC(N)CC3)c(Cl)c2=O)cc1NC(=O)Nc1ccc(-c2ccccc2)cc1` stands 917 nM; under `CCOC(=O)N(C)/N=C/[C@H](CCc1ccccc1)NC(=O)[C@H](CC(C)C)NC(=O)c1cc2cccc(OC)c2o1`, 556 nM.

Consider `FC(F)(F)c1ccc2[nH]c(-c3cccc(-c4ccc(CNCCN5CCNCC5)cc4)c3)nc2c1`, for which the XC50 is 862 nM. `O=C(Cn1c(SCc2cccc(F)c2F)cc(=O)c2ccccc21)N(CCCn1ccnc1)Cc1ccc(-c2ccc(C(F)(F)F)cc2)cc1` had an XC50 of 1320 nM.

On to `Cc1ncccc1C(=O)Nc1cccc(-c2cccc(-c3nc4cccc(C)c4[nH]3)c2)c1`, for which the XC50 came to 956 nM. `CN1CCN(CC(=O)Nc2ccc(-c3ccc(-c4nc5cc(C(F)(F)F)ccc5[nH]4)s3)cc2)CC1` displayed an XC50 of 569 nM. As to `CCCC(C)Nc1nc(C)cc(N[C@@H](CC(C)C)C(=O)NCCOc2ccccc2)n1` (stereo partly specified), the XC50 was determined as 1710 nM.

For `C/C=C1\CN2CC[C@H]1C[C@H]2[C@H](O)c1ccnc2ccc(OC)cc12`, the XC50 was determined as 318 nM. In turn, `Cc1ccc(F)c(CN2CCC(N3CC(c4ccccc4)(c4ccccc4)OC3=O)CC2)c1Cl` returned an XC50 of 593 nM. Turning to `O=C(Nc1ccc(F)c(F)c1)c1ccc(CN2CCCN(Cc3cccc(O)c3)CC2)cc1`, the XC50 was found to be 836 nM. For `COc1ccc2nccc([C@@H](O)CN3CCC(NCCOc4cc(C(F)(F)F)ccc4F)CC3)c2c1`, the XC50 turned out to be 108 nM. `CS(=O)(=O)c1ccc(-c2cncc(Nc3cccc([N+](=O)[O-])c3)c2)cc1` showed an XC50 of 773 nM.

For `CC(C)C[C@H](Nc1ccnc(NCC2CCCCC2)n1)C(=O)NCCc1ccccc1`, the XC50 stood at 750 nM.

`Cc1ccc(N)cc1-c1nc(NC2CC(C)(C)NC(C)(C)C2)nc2c1ccc(=O)n2-c1c(F)cccc1F` yielded an XC50 of 842 nM. For the molecule `COc1cccc2cc(C(=O)N[C@@H](CC(C)C)C(=O)N[C@H](/C=N/NC(=O)N3CCN(C)CC3)CCc3ccccc3)oc12`, the XC50 stood at 616 nM. `Cc1cccc2nc(-c3cccc(-c4ccc(NC(=O)CCc5c[nH]cn5)cc4)c3)[nH]c12`: the XC50 worked out at 302 nM.

Regarding `Cc1cc2ccccc2n1CC(=O)N1CC(C(=O)N2CCCCC2)Oc2ccccc21` (stereo unspecified), the XC50 turned out to be 899 nM.

Molecule `Cc1cccc(NC(=O)c2ccc(C(=O)NC3CCN(CC4CCCCC4)CC3)cc2)c1` came in with an XC50 of 805 nM. Turning to `NCC(=O)NC12CC3CC(CC(C3)C1)C2`, the XC50 came to 1200 nM.

As for `CCNc1cc(C(=O)N[C@@H](Cc2ccccc2)[C@H](O)CNC2(C)CCCCC2)cc(N2CCCCS2(=O)=O)c1`, the XC50 turned out to be 156 nM.

Turning to `COc1ccc2nccc(N3CCCN(CCNCc4ccc5c(n4)NC(=O)CS5)CC3)c2n1`, the XC50 is 155 nM. `OCCN1CCN(Cc2ccc(-c3cccc(-c4nc5ccccc5[nH]4)c3)cc2)CC1` had an XC50 of 749 nM. `CN(C)Cc1ccc(-c2cccc(NC(=O)c3cccc(Cl)c3)c2)cc1` gave an XC50 of 693 nM. As to `Clc1ccc(Nc2nc(-c3ccccn3)cs2)nc1`, the XC50 was 774 nM. In the case of `COc1cc(Cc2cnc(N)nc2N)cc(OC)c1OCCCCC(=O)O` it was 1140 nM.

For `CC(C)N(C)C(=O)n1cnc(S(=O)(=O)C2CC3CCC2C3)n1` (stereo unspecified), the XC50 was found to be 57 nM. In the case of `Cc1ccccc1C1CCN(C2CCC(NC(=O)c3ccc(-c4ccccc4F)o3)CC2)CC1` (stereo unspecified) it was 1050 nM; in that of `CCN(CC)CCNc1ccnc2c3ccccc3n(C)c12`, 238 nM.

The molecule `Cc1ccc(S(=O)(=O)n2cc(-c3ccnc(N)c3)c3cc(Br)cnc32)cc1` registered an XC50 of 896 nM. As for `O=C(Nc1ccc(OC2CCN(Cc3ccc(F)cc3)C2)cc1)c1cccs1` (stereo unspecified), the XC50 was found to be 642 nM. Molecule `O=C(Nc1ccc(Cl)cc1)Nc1cccc(-c2ccc(-c3nc4ccccc4[nH]3)cc2)c1` gave an XC50 of 928 nM. `O=C(/C=C/c1ccc(Cl)c(Cl)c1)NC1CCC(N2CCC(c3c[nH]c4ccccc34)CC2)CC1` (stereo unspecified) returned an XC50 of 876 nM. Turning to `COc1cc(OC)cc(-c2nc3ccc(OCCN(C)C)c(C#N)c3[nH]2)c1`, the XC50 was 655 nM. The molecule `COc1ccc(Nc2ncc(C#N)c(Nc3ccccc3C(N)=O)n2)cc1N1CCN(C)CC1` came in with an XC50 of 136 nM. As for `SC(=Nc1ccc2c(c1)OCCO2)NN=Cc1ccccn1`, the XC50 is 1050 nM. In turn, `CCC1CCCCN1S(=O)(=O)c1ccc(OC)c(N2CCN(C(=O)C(Cl)(Cl)Cl)CC2)c1` (stereo unspecified) had an XC50 of 1120 nM. `C(=NN=c1cc[nH]c2ccccc12)c1ccncc1` returned an XC50 of 743 nM.

Consider `CS(=O)(=O)Cc1ccc(Nc2nccc(-c3c(-c4cccc(NC(=O)c5c(F)cccc5F)c4)nn4ccccc34)n2)cc1`, for which the XC50 was found to be 150 nM.

The molecule `CC1(C)[C@H]2CC[C@@H](CNc3nc(NCCc4c[nH]cn4)nc(Nc4ccc(Oc5ccccc5)cc4)n3)[C@@H]1C2` yielded an XC50 of 672 nM. Under `c1ccc(OCCCCN2CCCCC2)cc1` stands 537 nM; under `CCNc1cc(C(=O)N[C@@H](Cc2ccc(Cl)cc2)[C@H](O)CNC2CCCCC2)cc(N2CCCCS2(=O)=O)c1`, 150 nM; under `O=C(NCCCCCN1CCC(c2c[nH]c3ccccc23)C1)Nc1ccc(Cl)c(Cl)c1` (stereo unspecified), 811 nM. `Cc1cc(N[C@@H](Cc2ccccc2)C(=O)NC2CCCC2)nc(NCCCOC(C)C)n1` came in with an XC50 of 1480 nM. `COc1ccc(Oc2ccc(-c3c(O)cc(C)nc3C)cc2)cc1` registered an XC50 of 612 nM. Turning to `O=C(Nc1cccc(F)c1)NC1CCN(CCCCCNC(=O)C2CC2c2ccc(Cl)c(Cl)c2)CC1` (stereo unspecified), the XC50 was 763 nM.

As to `CC(NC(=O)c1ccc(O)c(-c2ccc(Cl)c(Cl)c2)c1)C(=O)NCCN1CCOCC1` (stereo unspecified), the XC50 is 959 nM.

`COc1ccc2nc(C)cc(Nc3ccc(Cl)cc3)c2c1`: the XC50 stood at 946 nM.
